Laboratory results as given in ChEMBL document CHEMBL3044616, “Synthesis, crystal structure and -glucuronidase inhibition activity of some new hydrazinecarboxamides and their 1,2,4-triazole derivatives” (Med Chem Res, 2012).
The source made the active and inactive calls. The calls are words filed in the database; no cut-off is given here.

Tests used:
[1] = Inhibition of Escherichia coli beta-glucuronidase using para-nitrophenyl-beta-D-glucuronide as substrate incubated for 30 min prior to substrate addition measured for 30 min by spectrophotometric analysis
[2] = test system: Escherichia coli; assay: Inhibition of Escherichia coli beta-glucuronidase using para-nitrophenyl-beta-D-glucuronide as substrate at 0.2 mM incubated for 30 min prior to substrate addition measured for 30 min by spectrophotometric analysis

Row | Compound | IC50 [1] | inhibition [2]
1 | COc1ccc(CCc2n[nH]c(=O)n2-c2ccccc2OC)cc1 |  | inactive
2 | COc1ccc(CCc2n[nH]c(=O)n2-c2cccc(OC)c2)cc1 |  | inactive
3 | COc1cccc(CCc2n[nH]c(=O)n2-c2cccc(OC)c2)c1 |  | inactive
4 | COc1cccc(CCc2n[nH]c(=O)n2-c2ccccc2OC)c1 |  | inactive
5 | O=C(O)[C@@H](O)[C@H]1OC(=O)[C@H](O)[C@H]1O |  | 86.2%
6 | COc1cccc(Cc2n[nH]c(=O)n2-c2cccc(OC)c2)c1 |  | inactive
7 | COc1ccccc1CC(=O)NNC(=O)Nc1ccccc1OC | 40.7 µM | 88.8%
8 | COc1ccccc1CCc1n[nH]c(=O)n1-c1ccccc1OC |  | inactive
9 | COc1ccc(-n2c(CCc3ccccc3OC)n[nH]c2=O)cc1 |  | inactive
10 | COc1ccc(Cc2n[nH]c(=O)n2-c2ccccc2OC)cc1 |  | inactive
11 | COc1cccc(Cc2n[nH]c(=O)n2-c2ccccc2OC)c1 |  | inactive
12 | COc1ccccc1Cc1n[nH]c(=O)n1-c1ccccc1OC |  | inactive
13 | COc1cccc(-n2c(Cc3ccccc3OC)n[nH]c2=O)c1 |  | inactive
14 | COc1cccc(-n2c(CCc3ccccc3OC)n[nH]c2=O)c1 |  | inactive

Second part, the compound after the results:

Row | IC50 [1] | inhibition [2] | Compound
15 | 96.7 µM | 59.3% | COc1ccc(CCC(=O)NNC(=O)Nc2cccc(OC)c2)cc1
16 | 15.5 µM | 87.9% | COc1ccc(NC(=O)NNC(=O)CCc2ccccc2OC)cc1
17 | 83.7 µM | 54.6% | COc1cccc(NC(=O)NNC(=O)CCc2ccccc2OC)c1
18 | 74.5 µM | 73.3% | COc1ccc(NC(=O)NNC(=O)CCc2cccc(OC)c2)cc1
19 | 46.1 µM | 83.7% | COc1ccc(CCC(=O)NNC(=O)Nc2ccccc2OC)cc1
20 |  | 46.5% | COc1cccc(NC(=O)NNC(=O)Cc2ccccc2OC)c1
21 | 134 µM | 68.3% | COc1cccc(CC(=O)NNC(=O)Nc2ccccc2OC)c1
22 | 67.3 µM | 77.6% | COc1ccccc1CCC(=O)NNC(=O)Nc1ccccc1OC
23 | 101 µM | 70.8% | COc1cccc(CC(=O)NNC(=O)Nc2cccc(OC)c2)c1
24 | 16.8 µM | 94.5% | COc1ccc(CC(=O)NNC(=O)Nc2ccccc2OC)cc1
25 | 52.4 µM | 82.9% | COc1cccc(CCC(=O)NNC(=O)Nc2ccccc2OC)c1
26 | 179 µM | 52% | COc1cccc(CCC(=O)NNC(=O)Nc2cccc(OC)c2)c1
